Reference: patent US7851444B2 (priority 2002, dated 2010)
pIC50: −log10 of the molar value.

Columns and labels:
[1] = biological target: T1, human noradrenaline transporter (hNET) (Homo sapiens, UniProt P23975); test: biochemical; format: binding
T1 construct: expressed in transfected cells; host or cells: COS-7 cells (ATCC), transient transfection with metafectene

[2] = biological target: T1, human noradrenaline transporter (hNET); test: cell-based

T1 sequence (P23975 whole entry): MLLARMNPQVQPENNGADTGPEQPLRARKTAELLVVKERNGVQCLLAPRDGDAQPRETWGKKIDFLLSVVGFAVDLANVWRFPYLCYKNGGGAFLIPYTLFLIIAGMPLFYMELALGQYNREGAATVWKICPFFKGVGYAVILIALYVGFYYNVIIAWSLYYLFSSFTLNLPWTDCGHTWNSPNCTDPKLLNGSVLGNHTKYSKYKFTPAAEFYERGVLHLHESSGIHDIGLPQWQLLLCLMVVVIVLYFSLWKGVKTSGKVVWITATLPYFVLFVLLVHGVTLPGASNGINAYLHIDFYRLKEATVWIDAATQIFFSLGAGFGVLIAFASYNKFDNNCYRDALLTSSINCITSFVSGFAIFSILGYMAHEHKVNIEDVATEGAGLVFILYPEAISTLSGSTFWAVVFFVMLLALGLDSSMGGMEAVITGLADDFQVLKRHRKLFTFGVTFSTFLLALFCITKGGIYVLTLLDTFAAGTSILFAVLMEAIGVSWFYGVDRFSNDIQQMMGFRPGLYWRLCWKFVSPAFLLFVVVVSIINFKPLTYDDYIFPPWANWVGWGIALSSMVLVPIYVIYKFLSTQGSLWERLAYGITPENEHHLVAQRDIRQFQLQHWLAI

| Structure (SMILES) | pIC50 [1] | pIC50 [2] |
| --- | --- | --- |
| CC(C)C[C@@H]1NC(=O)[C@H](CCCCN)NC(=O)[C@H](Cc2ccc(O)cc2)NC(=O)CNC(=O)[C@@H]2CSSC[C@H](NC1=O)C(=O)N[C@@H](Cc1c[nH]cn1)C(=O)N1C[C@H](O)C[C@H]1C(=O)N[C@H](C(=O)O)CSSC[C@H](NC(=O)[C@@H](NC(=O)CNC(=O)[C@@H]1CCC(=O)N1)C(C)C)C(=O)N2 [SEQ ID NO. 9, Xaa1 Gly Val Cys Cys Gly Tyr Lys Leu Cys His Xaa3 Cys —OH] | 5.08 |  |
| COc1ccc(C[C@@H]2NC(=O)CNC(=O)[C@@H]3CSSC[C@H](NC(=O)[C@H](CC(C)C)NC(=O)[C@H](CCCCN)NC2=O)C(=O)N[C@@H](Cc2c[nH]cn2)C(=O)N2C[C@H](O)C[C@H]2C(=O)N[C@H](C(N)=O)CSSC[C@H](NC(=O)[C@@H](NC(=O)CNC(=O)[C@@H]2CCC(=O)N2)C(C)C)C(=O)N3)cc1 [SEQ ID NO. 6, Xaa1 Gly Val Cys Cys Gly Xaa4 Lys Leu Cys His Xaa3 Cys] | 5.94 | 6.67 |
| CC(C)C[C@@H]1NC(=O)[C@H](CCCCN)NC(=O)[C@H](Cc2ccc(O)cc2)NC(=O)CNC(=O)[C@@H]2CSSC[C@H](NC1=O)C(=O)N[C@@H](Cc1c[nH]cn1)C(=O)N1C[C@H](O)C[C@H]1C(=O)N[C@@H](C(N)=O)CSSC[C@H](NC(=O)[C@@H](NC(=O)CNC(=O)[C@@H]1CCC(=O)N1)C(C)C)C(=O)N2 [SEQ ID NO. 5, Xaa1 Gly Val Cys Cys Gly Tyr Lys Leu Cys His Xaa3 Xaa5] | 5.38 | 6.24 |
